# Data published in paper PMC3702004, “Comparison of Intake and Systemic Relative Effect Potencies of Dioxin-like Compounds in Female Mice after a Single Oral Dose” (Environmental Health Perspectives, 2013).
# Columns and labels:
# [1] = Body and organ weight, hepatic lipid content; type: in vivo, female C57BL/6 mice; conditions: day 3; for % lipid / g liver: pooled liver samples; for Dose with significant increase in liver weight vs vehicle controls: single oral dose
# Procedure: (§1) Animals. Eight-week-old female C57BL/6 mice (Harlan laboratories, Venray, the Netherlands) were randomly assigned to treatment groups (six animals per group) and allowed to acclimate for 1.5 weeks. The animals were housed in groups in standard cages and conditions (23 ± 2°C, 50–60% relative humidity, 12-hr dark/light cycle) with free access to food and water. Mice received a single dose of test compound by oral gavage at a dosing volume of 10 mL/kg body weight (BW). Mice treated with corn oil vehicle (10 mL/kg BW) served as controls. For each congener, five different doses were administered, ranging from 0.5–100 μg/kg BW (TCDD) to 5,000–500,000 µg/kg BW (PCB-153). Detailed information on doses is provided in Supplemental Material, Table S1 (http://dx.doi.org/10.1289/ehp.1206336). On day 3 after dosing, animals were euthanized by CO2/O2 asphyxiation, and blood was immediately collected from the abdominal aorta. The liver, thymus, spleen, and adipose tissue were removed, weighed (liver, thymus, and spleen), snap frozen, and stored at –80°C. All animal treatments were performed with permission of the Animal Ethical Committee (DEC Utrecht) and performed according to the [Law on Animal Experiments (1977)]. Animals were treated humanely and with regard for alleviation of suffering.
# (§2) Compound analysis. Adipose and liver tissues samples were homogenized in Na2SO4, followed by extraction and clean-up in one step, and then eluted with 200 mL 1:1 hexane:dichloromethane on an open column packed with 40% wt/wt H2SO4-impregnated silica and KOH-silica. Blood plasma samples were extracted on an open column using Chem-Elut (Agilent Technologies, Santa Clara, CA, USA) and then NaCl eluted with 75 mL 3:2 hexane:2-propanol. Clean-up was performed using a miniaturized silica column (as described above), and samples were eluted using 30 mL hexane. Because the samples typically contained high levels of the analytes, only a small fraction was evaporated and analyzed. Prior to evaporation, we spiked a fraction of the samples with ^13C-labeled standards. We checked potential loss of analytes during extraction and clean-up by reextracting the samples using the identical protocol used for the samples. […] Tetradecane was added prior to evaporation. Sample analysis followed the U.S. Environmental Protection Agency Method 1613 ([U.S. Environmental Protection Agency 1994]) using single ion monitoring mode on an Agilent 6809N gas chromatograph (Agilent Technologies) coupled with a Micromass Ultima Autospec Ultra high-resolution mass spectrometer (HRMS; Waters Corp., Milford, MA, USA). Compounds were separated on a 60 m × 0.25 mm DB5-MS column ([…]; J&W Scientific, Folsom, CA, USA). The HRMS was operated with electron impact ionization with electron energy of 35 eV and an ion source temperature of 250°C. To reduce the number of analyses, samples were pooled before clean-up. […] This method was used because full congener–specific separation could be achieved on the high-resolution GC–HRMS. For lipid determination, samples were evaporated to dryness after the extraction step, and the amount of lipids was determined gravimetrically. Concentrations were calculated based on lipid weight and wet weight. The analysis of samples for the PCB-118 5,000 μg/kg BW dose failed during the procedure; thus analysis for this group could not be completed.
# Statistical analysis. Statistical significant differences of the means and variances were determined using one-way analysis of variance (ANOVA) followed by Tukey-Kramer multiple comparisons. Differences were considered statistically significant at p < 0.05. Statistical calculations were performed using GraphPad 6.01 (GraphPad Software Inc.).
# [2] = Compound analysis: liver, adipose and plasma concentrations 3 days after a single oral dose; type: in vivo, female C57BL/6 mice; conditions: for Adipose % dose / g tissue / liver:adipose ratio (hepatic sequestration criterion 0.3) / Liver % dose / g tissue / Plasma % dose / g tissue: 3 days after single oral dose; for liver:adipose ratio (hepatic sequestration criterion 0.3): Table 1 doses; for Liver:adipose ratio: based on ng/g tissue, day 3
# Procedure: as §1, §2
# Plasma and PBL isolation. Blood from two mice was pooled (total volume of approximately 1.4 mL); plasma and PBLs were then isolated using Ficoll Paque gradient (GE Healthcare Europe, Diegem, Belgium). Plasma samples were stored at –80°C until compound analysis. Isolated lymphocytes were lysed with RLT buffer (QIAGEN, Venlo, the Netherlands) as described in the QIAGEN RNAeasy kit protocol and stored at –80°C until use.
structure (smiles),measurement,setting,value
"Clc1cc2oc3c(Cl)c(Cl)c(Cl)cc3c2cc1Cl [Congener 4-PeCDF, 2,3,4,7,8-pentachlorodibenzofuran]",Body weight,[1]; oral dose 5 µg/kg bw,19.3 ± 1.2 gram
same,Liver weight,[1]; oral dose 5 µg/kg bw,5.37 ± 0.32 % of bw
same,Spleen weight,[1]; oral dose 5 µg/kg bw,0.29 ± 0.05 % of bw
same,Thymus weight,[1]; oral dose 5 µg/kg bw,0.26 ± 0.07 % of bw
same,% lipid / g liver,[1]; oral dose 5 µg/kg bw,3.6%
same,Body weight,[1]; oral dose 25 µg/kg bw,19.0 ± 1.1 gram
same,Liver weight,[1]; oral dose 25 µg/kg bw,5.32 ± 0.19 % of bw
same,Spleen weight,[1]; oral dose 25 µg/kg bw,0.33 ± 0.04 % of bw
same,Thymus weight,[1]; oral dose 25 µg/kg bw,0.24 ± 0.04 % of bw
same,% lipid / g liver,[1]; oral dose 25 µg/kg bw,4.5%
same,Body weight,[1]; oral dose 100 µg/kg bw,19.2 ± 1.0 gram
same,Liver weight,[1]; oral dose 100 µg/kg bw,5.94 ± 0.27 % of bw
same,Spleen weight,[1]; oral dose 100 µg/kg bw,0.32 ± 0.03 % of bw
same,Thymus weight,[1]; oral dose 100 µg/kg bw,0.22 ± 0.04 % of bw
same,% lipid / g liver,[1]; oral dose 100 µg/kg bw,4.5%
same,Body weight,[1]; oral dose 250 µg/kg bw,19.8 ± 1.0 gram
same,Liver weight,[1]; oral dose 250 µg/kg bw,6.05 ± 0.42 % of bw
same,Spleen weight,[1]; oral dose 250 µg/kg bw,0.34 ± 0.04 % of bw
same,Thymus weight,[1]; oral dose 250 µg/kg bw,0.23 ± 0.03 % of bw
same,Body weight,[1]; oral dose 1000 µg/kg bw,20.2 ± 1.1 gram
same,Liver weight,[1]; oral dose 1000 µg/kg bw,6.35 ± 0.30 % of bw
same,Spleen weight,[1]; oral dose 1000 µg/kg bw,0.32 ± 0.02 % of bw
same,Thymus weight,[1]; oral dose 1000 µg/kg bw,0.22 ± 0.04 % of bw
same,Dose with significant increase in liver weight vs vehicle controls,[1],≥ 100 µg/kg BW
same,Adipose % dose / g tissue,[2]; oral dose 5 µg/kg bw,3.4 % dose / g tissue
same,Adipose % dose / g tissue,[2]; oral dose 25 µg/kg bw,3.0 % dose / g tissue
same,Adipose % dose / g tissue,[2]; oral dose 100 µg/kg bw,3.5 % dose / g tissue
"Clc1ccc(-c2cc(Cl)c(Cl)cc2Cl)cc1Cl [PCB-118, 2,3´,4,4´,5-pentachlorobiphenyl]",Body weight,[1]; oral dose 5000 µg/kg bw,18.3 ± 0.9 gram
same,Liver weight,[1]; oral dose 5000 µg/kg bw,5.04 ± 0.22 % of bw
same,Spleen weight,[1]; oral dose 5000 µg/kg bw,0.32 ± 0.03 % of bw
same,Thymus weight,[1]; oral dose 5000 µg/kg bw,0.27 ± 0.03 % of bw
same,% lipid / g liver,[1]; oral dose 5000 µg/kg bw,2.7%
same,Body weight,[1]; oral dose 15000 µg/kg bw,18.3 ± 0.8 gram
same,Liver weight,[1]; oral dose 15000 µg/kg bw,5.06 ± 0.22 % of bw
same,Spleen weight,[1]; oral dose 15000 µg/kg bw,0.33 ± 0.05 % of bw
same,Thymus weight,[1]; oral dose 15000 µg/kg bw,0.23 ± 0.04 % of bw
same,% lipid / g liver,[1]; oral dose 15000 µg/kg bw,3.3%
same,Body weight,[1]; oral dose 50000 µg/kg bw,18.0 ± 1.8 gram
same,Liver weight,[1]; oral dose 50000 µg/kg bw,4.87 ± 0.41 % of bw
same,Spleen weight,[1]; oral dose 50000 µg/kg bw,0.30 ± 0.03 % of bw
same,Thymus weight,[1]; oral dose 50000 µg/kg bw,0.20 ± 0.05 % of bw
same,% lipid / g liver,[1]; oral dose 50000 µg/kg bw,3.5%
same,Body weight,[1]; oral dose 150000 µg/kg bw,19.2 ± 0.8 gram
same,Liver weight,[1]; oral dose 150000 µg/kg bw,6.14 ± 0.45 % of bw
same,Spleen weight,[1]; oral dose 150000 µg/kg bw,0.34 ± 0.04 % of bw
same,Thymus weight,[1]; oral dose 150000 µg/kg bw,0.21 ± 0.05 % of bw
same,% lipid / g liver,[1]; oral dose 150000 µg/kg bw,4.6%
same,Body weight,[1]; oral dose 500000 µg/kg bw,19.1 ± 1.0 gram
same,Liver weight,[1]; oral dose 500000 µg/kg bw,7.23 ± 0.29 % of bw
same,Spleen weight,[1]; oral dose 500000 µg/kg bw,0.31 ± 0.03 % of bw
same,Thymus weight,[1]; oral dose 500000 µg/kg bw,0.23 ± 0.04 % of bw
same,Dose with significant increase in liver weight vs vehicle controls,[1],"≥ 150,000 µg/kg BW"
same,liver:adipose ratio (hepatic sequestration criterion 0.3),[2],< 0.3
same,Liver:adipose ratio,"[2]; dose 15,000 μg/kg BW",0.08±0.01
same,Liver:adipose ratio,"[2]; dose 50,000 μg/kg BW",0.07±0.02
same,Adipose % dose / g tissue,[2]; oral dose 15000 µg/kg bw,32 % dose / g tissue
same,Liver % dose / g tissue,[2]; oral dose 15000 µg/kg bw,2.6 % dose / g tissue
same,Plasma % dose / g tissue,[2]; oral dose 15000 µg/kg bw,0.054 % dose / g tissue
same,Adipose % dose / g tissue,[2]; oral dose 50000 µg/kg bw,33 % dose / g tissue
same,Liver % dose / g tissue,[2]; oral dose 50000 µg/kg bw,2.2 % dose / g tissue
same,Plasma % dose / g tissue,[2]; oral dose 50000 µg/kg bw,0.067 % dose / g tissue
same,Liver % dose / g tissue,[2]; oral dose 150000 µg/kg bw,2.2 % dose / g tissue
same,Plasma % dose / g tissue,[2]; oral dose 150000 µg/kg bw,0.062 % dose / g tissue
same,Plasma % dose / g tissue,[2]; oral dose 500000 µg/kg bw,0.05 % dose / g tissue
"Clc1ccc(-c2cc(Cl)c(Cl)c(Cl)c2)cc1Cl [PCB-126, 3,3´,4,4´,5-pentachlorobiphenyl]",Body weight,[1]; oral dose 5 µg/kg bw,19.3 ± 0.9 gram
same,Liver weight,[1]; oral dose 5 µg/kg bw,4.97 ± 0.38 % of bw
same,Spleen weight,[1]; oral dose 5 µg/kg bw,0.33 ± 0.04 % of bw
same,Thymus weight,[1]; oral dose 5 µg/kg bw,0.27 ± 0.06 % of bw
same,% lipid / g liver,[1]; oral dose 5 µg/kg bw,3.4%
same,Body weight,[1]; oral dose 25 µg/kg bw,18.9 ± 1.4 gram
same,Liver weight,[1]; oral dose 25 µg/kg bw,4.96 ± 0.35 % of bw
same,Spleen weight,[1]; oral dose 25 µg/kg bw,0.33 ± 0.06 % of bw
same,Thymus weight,[1]; oral dose 25 µg/kg bw,0.29 ± 0.05 % of bw
same,% lipid / g liver,[1]; oral dose 25 µg/kg bw,3.7%
same,Body weight,[1]; oral dose 100 µg/kg bw,19.5 ± 0.7 gram
same,Liver weight,[1]; oral dose 100 µg/kg bw,5.07 ± 0.19 % of bw
same,Spleen weight,[1]; oral dose 100 µg/kg bw,0.31 ± 0.04 % of bw
same,Thymus weight,[1]; oral dose 100 µg/kg bw,0.25 ± 0.06 % of bw
same,% lipid / g liver,[1]; oral dose 100 µg/kg bw,4.4%
same,Body weight,[1]; oral dose 250 µg/kg bw,19.3 ± 1.3 gram
same,Liver weight,[1]; oral dose 250 µg/kg bw,5.43 ± 0.19 % of bw
same,Spleen weight,[1]; oral dose 250 µg/kg bw,0.32 ± 0.02 % of bw
same,Thymus weight,[1]; oral dose 250 µg/kg bw,0.26 ± 0.04 % of bw
same,Body weight,[1]; oral dose 1000 µg/kg bw,18.8 ± 0.9 gram
same,Liver weight,[1]; oral dose 1000 µg/kg bw,5.64 ± 0.20 % of bw
same,Spleen weight,[1]; oral dose 1000 µg/kg bw,0.39 ± 0.16 % of bw
same,Thymus weight,[1]; oral dose 1000 µg/kg bw,0.27 ± 0.04 % of bw
same,Dose with significant increase in liver weight vs vehicle controls,[1],"≥ 1,000 µg/kg BW"
same,liver:adipose ratio (hepatic sequestration criterion 0.3),[2],> 0.3
same,Liver:adipose ratio,[2]; dose 5 μg/kg BW,3.2±0.3
same,Liver:adipose ratio,[2]; dose 25 μg/kg BW,5.9±0.9
same,Liver:adipose ratio,[2]; dose 100 μg/kg BW,9.1±0.9
same,Adipose % dose / g tissue,[2]; oral dose 5 µg/kg bw,12 % dose / g tissue
same,Liver % dose / g tissue,[2]; oral dose 5 µg/kg bw,38 % dose / g tissue
same,Plasma % dose / g tissue,[2]; oral dose 5 µg/kg bw,0.035 % dose / g tissue
same,Adipose % dose / g tissue,[2]; oral dose 25 µg/kg bw,11 % dose / g tissue
same,Liver % dose / g tissue,[2]; oral dose 25 µg/kg bw,65 % dose / g tissue
same,Plasma % dose / g tissue,[2]; oral dose 25 µg/kg bw,0.018 % dose / g tissue
same,Adipose % dose / g tissue,[2]; oral dose 100 µg/kg bw,5.5 % dose / g tissue
same,Liver % dose / g tissue,[2]; oral dose 100 µg/kg bw,51 % dose / g tissue
same,Plasma % dose / g tissue,[2]; oral dose 100 µg/kg bw,0.012 % dose / g tissue
same,Plasma % dose / g tissue,[2]; oral dose 250 µg/kg bw,0.013 % dose / g tissue
same,Plasma % dose / g tissue,[2]; oral dose 1000 µg/kg bw,0.014 % dose / g tissue
